What all share (design): dose 100 mg/kg, route oral
Holding throughout (settings): in vivo

Data set [1] relates to Rattus norvegicus. Kind of data set: Cmax in SPF Rattus norvegicus (rat) at 100 mg/kg, po. Type of data set: ADME, organism-based.
The next data set relates to Plasma. Description: Stability in SPF Rattus norvegicus (rat) plasma assessed as berberine formation at 100 mg/kg, po. Type of data set: ADME, organism-based.
Data set [2] relates to Rattus norvegicus. Kind of data set: Tmax in SPF Rattus norvegicus (rat) at 100 mg/kg, po. In kind it is ADME, organism-based.
Data set [3] relates to Rattus norvegicus. Description: AUC in SPF Rattus norvegicus (rat) at 100 mg/kg, po. In kind it is ADME, organism-based, Plasma.
Data set [4] deals with Rattus norvegicus. Description: Half life in SPF Rattus norvegicus (rat) at 100 mg/kg, po. Type of data set: ADME, organism-based.

Six compounds from ChEMBL document CHEMBL3044923, “Synthesis of 9-O-glycosyl-berberine derivatives and bioavailability evaluation” (Med Chem Res, 2012) can be followed below.

As a reminder, the Cmax is the peak of the concentration-time curve. For orientation: Tmax means the time at which the peak concentration occurs. As usually defined, the AUC is concentration integrated over time. A higher AUC goes with more exposure.

With `COc1ccc2cc3[n+](cc2c1OC1OC[C@@H](O)[C@@H](O)[C@@H]1O)CCc1cc2c(cc1-3)OCO2` (stereo partly drawn) [9-O-ARABINOSYL-BERBERINE], the highest level in the data set on Rattus norvegicus [1] (Cmax) was 48.7 ng/mL. Besides, the Stability entry with Plasma is “Unstable”. Moreover, in the data set on Rattus norvegicus [2], the Tmax is 3 h. Further, the AUC in the data set with Rattus norvegicus [3] was 205.146 ng·h/mL. The t1/2 in the data set with Rattus norvegicus [4] came out at 7.43 h.

The compound `CCCCCCCCCCCCOc1c(OC)ccc2cc3[n+](cc12)CCc1cc2c(cc1-3)OCO2` [9-O-DODECYL-BERBERINE] gave a Cmax in the data set with Rattus norvegicus [1] of 3.71 ng/mL. Also, the Stability entry in the data set with Plasma is given as “Stable”. The Tmax in the data set on Rattus norvegicus [2] came to 3.5 h. This compound also returned an area under the curve (AUC) in the data set with Rattus norvegicus [3] of 14.592 ng·h/mL. Also, in the data set with Rattus norvegicus [4], the t1/2 was determined as 7.86 h.

The compound `COc1ccc2cc3[n+](cc2c1OC[C@H](O)[C@H](O)CO)CCc1cc2c(cc1-3)OCO2` [9-O-ERYTHROL-BERBERINE] showed a Cmax in the data set on Rattus norvegicus [1] of 37.5 ng/mL. Moreover, in the data set with Plasma, the Stability entry was “Unstable”. Besides, in the data set on Rattus norvegicus [2], the Tmax was 3 h. The same compound came in with an AUC in the data set with Rattus norvegicus [3] of 180.316 ng·h/mL. The compound also showed a t1/2 with Rattus norvegicus [4] of 7.31 h.

Consider `COc1ccc2cc3[n+](cc2c1OC1O[C@H](CO)[C@@H](O)[C@H](O)[C@H]1O)CCc1cc2c(cc1-3)OCO2` (stereo partly drawn) [9-O-GLUCOSYL-BERBERINE], for which the peak level in the data set on Rattus norvegicus [1] (Cmax) was 63.4 ng/mL. For the same compound, in the data set with Plasma, the Stability entry is on record as “Unstable”. The Tmax in the data set on Rattus norvegicus [2] was determined as 3 h. The same compound showed an AUC in the data set on Rattus norvegicus [3] of 268.94 ng·h/mL. In addition, in the data set with Rattus norvegicus [4], the t1/2 turned out to be 7.58 h.

`CCCCCCCCOc1c(OC)ccc2cc3[n+](cc12)CCc1cc2c(cc1-3)OCO2` [9-O-OCTYL-BERBERINE]: the concentration with Rattus norvegicus [1] peaked (Cmax) at 4.39 ng/mL. Further, the Tmax in the data set on Rattus norvegicus [2] is 3 h. In the data set on Rattus norvegicus [3], this compound displayed an AUC of 17.329 ng·h/mL. The same compound registered a t1/2 in the data set with Rattus norvegicus [4] of 7.85 h.

`COc1ccc2cc3[n+](cc2c1OC)CCc1cc2c(cc1-3)OCO2` [BERBERINE] gave a Cmax in the data set with Rattus norvegicus [1] of 6.79 ng/mL. In the data set on Rattus norvegicus [2], the Tmax was 2 h. The AUC in the data set on Rattus norvegicus [3] worked out at 24.184 ng·h/mL. The compound further displayed a t1/2 in the data set on Rattus norvegicus [4] of 7.88 h.
